“And” between values parts separate entries of the source, which are not always exact repeats. Identical values can stand only once. ± gives the uncertainty stated by the source.
Test: xn = mol fraction of the nth substance listed

SMILES: C[N+](C)(C)CCO.[Cl-] + OCCO
- viscosity (293.15 K, 100 kPa, x1 = 0.333): 40.01 ± 0.53 mPa·s
- viscosity (293.15 K, 100 kPa, x1 = 0.34): 59.14 ± 2.4 mPa·s
- viscosity (293.15 K, 101 kPa, x1 = 0.333): 42.3 ± 3.4 mPa·s
- viscosity (293.15 K, 101 kPa, x2 = 0.7): 56.22 ± 1.2 mPa·s
- viscosity (293.15 K, 101.3 kPa, x2 = 0.6675): 60 ± 2.5 mPa·s
- viscosity (293.15 K, 101.3 kPa, x2 = 0.7): 53.07 ± 0.32 mPa·s
- viscosity (293.15 K, 101.3 kPa, x2 = 0.7499): 37.35 ± 1.6 mPa·s
- viscosity (293.15 K, 101.3 kPa, x2 = 0.7999): 31.8 ± 1.3 mPa·s
- viscosity (293.15 K, 101.3 kPa, x2 = 0.8332): 28.49 ± 1.2 mPa·s
- viscosity (293.15 K, 101.3 kPa, x2 = 0.8571): 25.56 ± 1.1 mPa·s
- viscosity (298 K, 100 kPa, x1 = 0.333): 45.1 ± 3.7 mPa·s
- viscosity (298 K, 101 kPa, x1 = 0.333): 42 ± 3 mPa·s
- viscosity (298.15 K, 100 kPa, x1 = 0.333): 41 ± 1 mPa·s and 32.73 ± 0.44 mPa·s
- viscosity (298.15 K, 100 kPa, x1 = 0.34): 47.74 ± 1.9 mPa·s
- viscosity (298.15 K, 101 kPa, x1 = 0.2): 20.1 ± 0.8 mPa·s
- viscosity (298.15 K, 101 kPa, x1 = 0.333): 35.1 ± 1.4 mPa·s
- viscosity (298.15 K, 101.1 kPa, x1 = 0.333): 39.45 ± 8.3 mPa·s
- viscosity (298.15 K, 101.3 kPa, x2 = 0.6675): 48.59 ± 2 mPa·s
- viscosity (298.15 K, 101.3 kPa, x2 = 0.7): 43.03 ± 0.49 mPa·s
- viscosity (298.15 K, 101.3 kPa, x2 = 0.7499): 31.12 ± 1.3 mPa·s
- viscosity (298.15 K, 101.3 kPa, x2 = 0.7999): 26.21 ± 1.1 mPa·s
- viscosity (298.15 K, 101.3 kPa, x2 = 0.8332): 23.36 ± 0.97 mPa·s
- viscosity (298.15 K, 101.3 kPa, x2 = 0.8571): 20.93 ± 0.87 mPa·s
- viscosity (298.15 K, 101.33 kPa, x2 = 0.7): 48 ± 5 mPa·s
- viscosity (298.2 K, 101.3 kPa, x1 = 0.1247): 20.5 ± 0.8 mPa·s
- viscosity (298.2 K, 101.3 kPa, x1 = 0.1675): 23.2 ± 0.9 mPa·s
- viscosity (298.2 K, 101.3 kPa, x1 = 0.2): 24.5 ± 1 mPa·s
- viscosity (298.2 K, 101.3 kPa, x1 = 0.2513): 27.2 ± 1.1 mPa·s
- viscosity (303 K, 100 kPa, x1 = 0.333): 36.8 ± 3 mPa·s
- viscosity (303 K, 101 kPa, x1 = 0.3333): 51.8 ± 1.5 mPa·s
- viscosity (303.15 K, 100 kPa, x1 = 0.333): 27.13 ± 0.36 mPa·s and 52.15 ± 2.1 mPa·s
- viscosity (303.15 K, 100 kPa, x1 = 0.34): 39.1 ± 1.6 mPa·s
- viscosity (303.15 K, 101 kPa, x1 = 0.333): 33.1 ± 2.7 mPa·s
- viscosity (303.15 K, 101 kPa, x2 = 0.7): 35 ± 10 mPa·s and 37.15 ± 0.78 mPa·s
- viscosity (303.15 K, 101.3 kPa, x2 = 0.6675): 39.78 ± 1.7 mPa·s
- viscosity (303.15 K, 101.3 kPa, x2 = 0.7): 35.06 ± 0.4 mPa·s
- viscosity (303.15 K, 101.3 kPa, x2 = 0.7499): 25.72 ± 1.1 mPa·s
- viscosity (303.15 K, 101.3 kPa, x2 = 0.7999): 21.7 ± 0.9 mPa·s
- viscosity (303.15 K, 101.3 kPa, x2 = 0.8332): 19.36 ± 0.8 mPa·s
- viscosity (303.15 K, 101.3 kPa, x2 = 0.8571): 17.34 ± 0.72 mPa·s
- viscosity (308 K, 100 kPa, x1 = 0.333): 30.8 ± 2.5 mPa·s
- viscosity (308 K, 101 kPa, x1 = 0.3333): 45.7 ± 1 mPa·s
- viscosity (308.15 K, 100 kPa, x1 = 0.333): 22.76 ± 0.3 mPa·s
- viscosity (308.15 K, 100 kPa, x1 = 0.34): 32.42 ± 1.3 mPa·s
- viscosity (308.15 K, 101 kPa, x1 = 0.3333): 30.9 ± 1 mPa·s
- viscosity (308.15 K, 101.3 kPa, x2 = 0.6675): 33.15 ± 1.4 mPa·s
- viscosity (308.15 K, 101.3 kPa, x2 = 0.7): 29.02 ± 0.33 mPa·s
- viscosity (308.15 K, 101.3 kPa, x2 = 0.7499): 21.63 ± 0.91 mPa·s
- viscosity (308.15 K, 101.3 kPa, x2 = 0.7999): 18.29 ± 0.75 mPa·s
- viscosity (308.15 K, 101.3 kPa, x2 = 0.8332): 16.22 ± 0.67 mPa·s
- viscosity (308.15 K, 101.3 kPa, x2 = 0.8571): 14.52 ± 0.6 mPa·s
- viscosity (308.2 K, 101.3 kPa, x1 = 0.1247): 15.3 ± 0.6 mPa·s
- viscosity (308.2 K, 101.3 kPa, x1 = 0.1675): 17.4 ± 0.7 mPa·s
- viscosity (308.2 K, 101.3 kPa, x1 = 0.2): 18.6 ± 0.8 mPa·s
- viscosity (308.2 K, 101.3 kPa, x1 = 0.2513): 20.7 ± 0.8 mPa·s
- viscosity (313 K, 100 kPa, x1 = 0.333): 26 ± 2.1 mPa·s
- viscosity (313 K, 101 kPa, x1 = 0.333): 23 ± 2 mPa·s
- viscosity (313 K, 101 kPa, x1 = 0.3333): 40.7 ± 0.9 mPa·s
- viscosity (313.15 K, 100 kPa, x1 = 0.333): 19.32 ± 0.26 mPa·s and 41.27 ± 1.7 mPa·s
- viscosity (313.15 K, 100 kPa, x1 = 0.34): 27.44 ± 1.1 mPa·s
- viscosity (313.15 K, 101 kPa, x1 = 0.333): 26.3 ± 2.1 mPa·s
- viscosity (313.15 K, 101 kPa, x1 = 0.3333): 25.8 ± 0.8 mPa·s
- viscosity (313.15 K, 101 kPa, x2 = 0.7): 25.84 ± 0.53 mPa·s
- viscosity (313.15 K, 101.3 kPa, x2 = 0.6675): 27.77 ± 1.2 mPa·s
- viscosity (313.15 K, 101.3 kPa, x2 = 0.7): 24.22 ± 0.27 mPa·s
- viscosity (313.15 K, 101.3 kPa, x2 = 0.7499): 18.27 ± 0.77 mPa·s
- viscosity (313.15 K, 101.3 kPa, x2 = 0.7999): 15.52 ± 0.64 mPa·s
- viscosity (313.15 K, 101.3 kPa, x2 = 0.8332): 13.72 ± 0.57 mPa·s
- viscosity (313.15 K, 101.3 kPa, x2 = 0.8571): 12.3 ± 0.51 mPa·s
- viscosity (318 K, 100 kPa, x1 = 0.333): 21.6 ± 1.7 mPa·s
- viscosity (318 K, 101 kPa, x1 = 0.3333): 36.4 ± 0.8 mPa·s
- viscosity (318.15 K, 100 kPa, x1 = 0.333): 16.57 ± 0.22 mPa·s
- viscosity (318.15 K, 100 kPa, x1 = 0.34): 23.03 ± 0.93 mPa·s
- viscosity (318.15 K, 101 kPa, x1 = 0.2): 10.5 ± 0.4 mPa·s
- viscosity (318.15 K, 101 kPa, x1 = 0.333): 15.6 ± 0.7 mPa·s
- viscosity (318.15 K, 101 kPa, x1 = 0.3333): 21.9 ± 0.7 mPa·s
- viscosity (318.15 K, 101.3 kPa, x2 = 0.6675): 23.61 ± 0.98 mPa·s
- viscosity (318.15 K, 101.3 kPa, x2 = 0.7): 20.47 ± 0.23 mPa·s
- viscosity (318.15 K, 101.3 kPa, x2 = 0.7499): 15.68 ± 0.66 mPa·s
- viscosity (318.15 K, 101.3 kPa, x2 = 0.7999): 13.3 ± 0.55 mPa·s
- viscosity (318.15 K, 101.3 kPa, x2 = 0.8332): 11.67 ± 0.48 mPa·s
- viscosity (318.15 K, 101.3 kPa, x2 = 0.8571): 10.51 ± 0.44 mPa·s
- viscosity (318.2 K, 101.3 kPa, x1 = 0.1247): 11.4 ± 0.5 mPa·s
- viscosity (318.2 K, 101.3 kPa, x1 = 0.1675): 13.1 ± 0.5 mPa·s
- viscosity (318.2 K, 101.3 kPa, x1 = 0.2): 14.2 ± 0.6 mPa·s
- viscosity (318.2 K, 101.3 kPa, x1 = 0.2513): 16.3 ± 0.7 mPa·s
- viscosity (323 K, 100 kPa, x1 = 0.333): 18.8 ± 1.5 mPa·s
- viscosity (323 K, 101 kPa, x1 = 0.333): 16 ± 1 mPa·s
- viscosity (323 K, 101 kPa, x1 = 0.3333): 32.8 ± 0.7 mPa·s
- viscosity (323.15 K, 100 kPa, x1 = 0.333): 14.33 ± 0.19 mPa·s and 33.33 ± 1.4 mPa·s
- viscosity (323.15 K, 101 kPa, x1 = 0.333): 21.2 ± 1.7 mPa·s
- viscosity (323.15 K, 101 kPa, x1 = 0.3333): 18.8 ± 0.6 mPa·s
- viscosity (323.15 K, 101.3 kPa, x2 = 0.6675): 20.3 ± 0.84 mPa·s
- viscosity (323.15 K, 101.3 kPa, x2 = 0.7): 17.41 ± 0.2 mPa·s
- viscosity (323.15 K, 101.3 kPa, x2 = 0.7499): 13.57 ± 0.57 mPa·s
- viscosity (323.15 K, 101.3 kPa, x2 = 0.7999): 11.5 ± 0.48 mPa·s
- viscosity (323.15 K, 101.3 kPa, x2 = 0.8332): 9.98 ± 0.41 mPa·s
- viscosity (323.15 K, 101.3 kPa, x2 = 0.8571): 9.07 ± 0.38 mPa·s

From the CheMixHub viscosity set
